{
  "source": "patent US10471050B2",
  "about": "“2-OXO-1,2-dihydropyridine-3,5-dicarboxamide compounds as bromodomain inhibitors” (GlaxoSmithKline Intellectual Property (No. 2) Limited, priority 2015, dated 2019)",
  "key": {"[1]": {"tested_on": "BRD4 BD2 over BRD4 BD1", "test": "Calculation of selectivity for BRD4 BD2 over BRD4 BD1 from the TR-FRET assays", "format": "binding, Human", "settings": "1 log unit = 10 fold, 2 log unit = 100 fold", "experimental": "Bromodomain binding was assessed utilising a time resolved fluorescent resonance energy transfer (TR-FRET) competition assay. To enable this approach a known, high affinity, pan-BET interacting small molecule was labelled with Alexa Fluor® 647, which is a far-red-fluorescent dye (Reference Compound X). Reference Compound X acts as a reporter of bromodomain binding and is the acceptor fluorophore component of the TR-FRET pair. Europium chelate, conjugated to an anti-6*His antibody, was utilised as the donor fluorophore in the TR-FRET pair. The anti-6*His antibody binds selectively to a six Histidine purification epitope added to the amino-terminus of each of the BET tandem bromodomain protein constructs used in this study. […]\nThe competition of the compounds of formula (I) with Reference Compound X for binding to the BET family (BRD2, BRD3, BRD4 and BRDT) was assessed using protein truncates spanning both bromodomain 1 (BD1) and bromodomain 2 (BD2). […] Utilising a Fluorescence Polarisation approach, binding affinities for each of the single and double mutants for Reference Compound X were determined. […] In the TR-FRET competition assay, Reference Compound X is used at a concentration that is equivalent to the Kd for the non-mutated bromodomain, which ensures that no binding at the mutated bromodomain is detected. […]"}, "[2]": {"target": "T1, BRD4 BD2 (Homo sapiens, UniProt O60885, Y97A)", "T1 construct": "BRD4 (1-477) (Y97A) and (Y390A); made in house; host or cells: E. coli (pET15b vector)", "test": "BRD4 BD2 TR-FRET competition assay", "format": "binding", "settings": "single mutant tandem BRD4, read-out: pIC50 in the BRD4 BD2 assay (converted)", "experimental": "Bromodomain binding was assessed utilising a time resolved fluorescent resonance energy transfer (TR-FRET) competition assay. To enable this approach a known, high affinity, pan-BET interacting small molecule was labelled with Alexa Fluor® 647, which is a far-red-fluorescent dye (Reference Compound X). Reference Compound X acts as a reporter of bromodomain binding and is the acceptor fluorophore component of the TR-FRET pair. Europium chelate, conjugated to an anti-6*His antibody, was utilised as the donor fluorophore in the TR-FRET pair. […] A TR-FRET signal is generated when the donor and acceptor fluorophores are in close proximity, between 20-80 Å, which is enabled in this assay by binding of Reference Compound X to the bromodomain protein.\nIn order to generate a TR-FRET signal, donor fluorophore is excited by a laser at λ337 nm, which subsequently leads to emission at λ618 nm. If the acceptor fluorophore is in close proximity then energy transfer can occur, which leads to emission of Alexa Fluor® 647 at λ665 nm. In the presence of competitor compound, Reference Compound X can be displaced from binding to the bromodomain. If displacement occurs, the acceptor fluorophore is no longer in proximity to the donor fluorophore, which prevents fluorescent energy transfer and, subsequently, a loss of Alexa Fluor® 647 emission at λ665 nm.\nThe competition of the compounds of formula (I) with Reference Compound X for binding to the BET family (BRD2, BRD3, BRD4 and BRDT) was assessed using protein truncates spanning both bromodomain 1 (BD1) and bromodomain 2 (BD2). In order to monitor differential binding to either BD1 or BD2, single residue mutations of key tyrosines to alanine were made in the acetyl lysine binding pockets. To validate this approach, a double residue mutant tandem domain protein was produced for each of the BET family members. Utilising a Fluorescence Polarisation approach, binding affinities for each of the single and double mutants for Reference Compound X were determined.\nFinal purification was completed by Superdex 200 prep grade size exclusion column. Purified protein was stored at −80° C. in 20 mM HEPES pH 7.5 and 100 mM NaCl.\nAll assay components were dissolved in an assay buffer composing of 50 mM HEPES pH7.4, 50 mM NaCl, 5% Glycerol, 1 mM DTT and 1 mM CHAPS. Reference Compound X was diluted, in assay buffer containing 20 nM single mutant, tandem bromodomain protein, to a concentration equivalent to 2*Kd for this bromodomain. The solution containing bromodomain and Reference Compound X was added to dose response dilutions of test compound or DMSO vehicle (a maximum of 0.5% DMSO is used in this assay) in Greiner 384 well black low volume microtitre plates and subsequently incubated for 30 minutes at room temperature. An equal volume of 3 nM of anti-6*His Europium chelate was added to all wells, followed by a further 30 minute incubation at room temperature. TR-FRET was detected using a Perkin Elmer Multimode plate reader, by exciting the donor fluorophore at λ337 nm and subsequently, after a delay of 50 μsecs, measuring emission of the donor and acceptor fluorophores at λ615 nm and λ665 nm, respectively. In order to control these assays, 16 replicates each of uninhibited (DMSO vehicle) and inhibited (10*IC50 concentrations of Example 11 of WO 2011/054846A1) TR-FRET assays were included on every microtitre plate.\ncA four parameter curve fit of the following form was then applied: y=a+((b−a)/(1+(10^x/10^c)^d)\nWhere ‘a’ is the minimum, ‘b’ is the Hill slope, ‘c’ is the pIC50 and ‘d’ is the maximum."}},
  "data": [
    {"smiles": "CNC(=O)c1cc(C(=O)NCCCC(=O)O)cn(Cc2ccccc2)c1=O", "note": "[Example 44, 4-(1-Benzyl-5-(methylcarbamoyl)-6-oxo-1,6-dihydropyridine-3-carboxamido)butanoic acid]", "values": [
      {"measurement": "selectivity for BRD4 BD2 over BRD4 BD1 (BRD4 BD2 pIC50 - BRD4 BD1 pIC50)", "setting": "[1]", "value": "< 1", "unit": "log unit"},
      {"measurement": "IC50", "setting": "[2]", "value": "100 to 1000", "unit": "nM"}
    ]}
  ]
}
